The source of these data is patent US11117900B2 (Vertex Pharmaceuticals Incorporated, priority 2012, dated 2021).

The test system of the experiment is HCT116 colorectal cancer cells. The experiment in a line: Cisplatin sensitization assay (96 h MTS cell viability).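 Further: compound concentration needed to lower the IC50 of Cisplatin alone by a set fold.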 The settings on record: Cisplatin sensitization value. Format: cell-based. In outline: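 HCT116 cells were dosed simultaneously with compound and cisplatin as a full matrix of 2-fold serial dilutions from 10 μM top final concentration. Incubation was 96 h at 37° C., 5% CO2, followed by 1 h with MTS reagent for the viability read-out. Sensitization values were binned into +++, ++ and + categories.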
In the case of `CN1CCN(CC2CCN(c3c(F)cncc3NC(=O)c3c(N)nn4cc(F)cnc34)CC2)CC1` [I-N-150, 2-amino-6-fluoro-N-(5-fluoro-4-(4-((4-methylpiperazin-1-yl)methyl)piperidin-1-yl)pyridin-3-yl)pyrazolo[1,5-a]pyrimidine-3-carboxamide], the “Cisplatin Sensitization Assay” value is “+++ (Compounds with a Cisplatin sensitization value of <0.02 μM are marked with “+++.”)”.
Then `Nc1nn2cc(F)cnc2c1C(=O)Nc1cnccc1-c1ccc(C(=O)N2CCN(C3COC3)CC2)cc1` [I-C-49, 2-amino-6-fluoro-N-(4-(4-(4-(oxetan-3-yl)piperazine-1-carbonyl)phenyl)pyridin-3-yl)pyrazolo[1,5-a]pyrimidine-3-carboxamide], with “+++ (Compounds with a Cisplatin sensitization value of <0.02 μM are marked with “+++.”)”; and `Cn1cc(-c2ccncc2NC(=O)c2c(N)nn3cc(F)cnc23)ccc1=O` [I-C-59, 2-amino-6-fluoro-N-(1-methyl-6-oxo-1,6-dihydro-[3,4′-bipyridin]-3′-yl)pyrazolo[1,5-a]pyrimidine-3-carboxamide], with “++ (Compounds with a Cisplatin sensitization value >0.02 μM but <0.2 μM are marked with “++.”)”.
The result for `Nc1nn2cc(F)cnc2c1C(=O)Nc1cnccc1N1CCC(C(=O)N2CCCC2)CC1` [I-G-83, 2-amino-6-fluoro-N-(4-(4-(pyrrolidine-1-carbonyl)piperidin-1-yl)pyridin-3-yl)pyrazolo[1,5-a]pyrimidine-3-carboxamide] reads “+++ (Compounds with a Cisplatin sensitization value of <0.02 μM are marked with “+++.”)”; that for `Nc1nn2cc(F)cnc2c1C(=O)Nc1cncc2c1CCNC2` [I-C-7, 2-amino-6-fluoro-N-(5,6,7,8-tetrahydro-2,7-naphthyridin-4-yl)pyrazolo[1,5-a]pyrimidine-3-carboxamide], “++ (Compounds with a Cisplatin sensitization value >0.02 μM but <0.2 μM are marked with “++.”)”; that for `Nc1nn2cc(F)cnc2c1C(=O)Nc1cnccc1C1CCN(C2COC2)CC1` [I-C-10, 2-amino-6-fluoro-N-(4-(1-(oxetan-3-yl)piperidin-4-yl)pyridin-3-yl)pyrazolo[1,5-a]pyrimidine-3-carboxamide], “+++ (Compounds with a Cisplatin sensitization value of <0.02 μM are marked with “+++.”)”.
Then `Nc1nn2cc(F)cnc2c1C(=O)Nc1cncc(Cl)c1N1CCC(C(=O)N2CCN3CCC2CC3)CC1` [I-G-66, N-(4-(4-(1,4-diazabicyclo[3.2.2]nonane-4-carbonyl)piperidin-1-yl)-5-chloropyridin-3-yl)-2-amino-6-fluoropyrazolo[1,5-a]pyrimidine-3-carboxamide], with “+++ (Compounds with a Cisplatin sensitization value of <0.02 μM are marked with “+++.”)”.
As for `CN1CCCCC1C(=O)N1CCN(c2c(F)cncc2NC(=O)c2c(N)nn3cc(F)cnc23)CC1` (stereo not shown) [I-N-173, 2-amino-6-fluoro-N-(5-fluoro-4-(4-(1-methylpiperidine-2-carbonyl)piperazin-1-yl)pyridin-3-yl)pyrazolo[1,5-a]pyrimidine-3-carboxamide], the “Cisplatin Sensitization Assay” value is listed as “+++ (Compounds with a Cisplatin sensitization value of <0.02 μM are marked with “+++.”)”.
Then `Nc1nn2cc(F)cnc2c1C(=O)Nc1cncc(F)c1N1CCC(S(=O)(=O)N2CCOCC2)CC1` [I-N-155, 2-amino-6-fluoro-N-(5-fluoro-4-(4-(morpholinosulfonyl)piperidin-1-yl)pyridin-3-yl)pyrazolo[1,5-a]pyrimidine-3-carboxamide], with “+++ (Compounds with a Cisplatin sensitization value of <0.02 μM are marked with “+++.”)”.
The result for `CN1CC(NC(=O)C2CCN(c3c(F)cncc3NC(=O)c3c(N)nn4cc(F)cnc34)CC2)C1` [I-G-23, 2-amino-6-fluoro-N-(5-fluoro-4-(4-((1-methylazetidin-3-yl)carbamoyl)piperidin-1-yl)pyridin-3-yl)pyrazolo[1,5-a]pyrimidine-3-carboxamide] reads “+++ (Compounds with a Cisplatin sensitization value of <0.02 μM are marked with “+++.”)”.
Then `Nc1nn2cc(F)cnc2c1C(=O)Nc1cncc(F)c1N1CC(=O)N2CCCC2C1` (stereo not shown) [I-N-232, 2-amino-6-fluoro-N-(5-fluoro-4-(4-oxohexahydropyrrolo[1,2-a]pyrazin-2(1H)-yl)pyridin-3-yl)pyrazolo[1,5-a]pyrimidine-3-carboxamide], with “++ (Compounds with a Cisplatin sensitization value >0.02 μM but <0.2 μM are marked with “++.”)”.
`COCCOc1ccncc1NC(=O)c1c(N)nn2cc(CC#N)cnc12` [I-O-29, 2-amino-6-(cyanomethyl)-N-(4-(2-methoxyethoxy)pyridin-3-yl)pyrazolo[1,5-a]pyrimidine-3-carboxamide]: the “Cisplatin Sensitization Assay” value is “+++ (Compounds with a Cisplatin sensitization value of <0.02 μM are marked with “+++.”)”.
The result for `Nc1nn2cc(F)cnc2c1C(=O)Nc1cncc(F)c1N1CCC(C(=O)N2CCNC3(CC3)C2)CC1` [I-G-28, N-(4-(4-(4,7-diazaspiro[2.5]octane-7-carbonyl)piperidin-1-yl)-5-fluoropyridin-3-yl)-2-amino-6-fluoropyrazolo[1,5-a]pyrimidine-3-carboxamide] reads “+++ (Compounds with a Cisplatin sensitization value of <0.02 μM are marked with “+++.”)”; that for `Nc1nn2cc(F)cnc2c1C(=O)Nc1cnccc1N1CCN(S(=O)(=O)C2CCOCC2)CC1` [I-N-177, 2-amino-6-fluoro-N-(4-(4-((tetrahydro-2H-pyran-4-yl)sulfonyl)piperazin-1-yl)pyridin-3-yl)pyrazolo[1,5-a]pyrimidine-3-carboxamide], “+++ (Compounds with a Cisplatin sensitization value of <0.02 μM are marked with “+++.”)”.
The result for `CN1CCC[C@H]1C(=O)N1CCN(c2c(F)cncc2NC(=O)c2c(N)nn3cc(F)cnc23)CC1` [I-N-157, (S)-2-amino-6-fluoro-N-(5-fluoro-4-(4-(1-methylpyrrolidine-2-carbonyl)piperazin-1-yl)pyridin-3-yl)pyrazolo[1,5-a]pyrimidine-3-carboxamide] reads “++ (Compounds with a Cisplatin sensitization value >0.02 μM but <0.2 μM are marked with “++.”)”; that for `CN1CCN(C(=O)C2CCN(c3ccncc3NC(=O)c3c(N)nn4cc(F)cnc34)CC2)CC1` [I-G-1, 2-amino-6-fluoro-N-(4-(4-(4-methylpiperazine-1-carbonyl)piperidin-1-yl)pyridin-3-yl)pyrazolo[1,5-a]pyrimidine-3-carboxamide], “+++ (Compounds with a Cisplatin sensitization value of <0.02 μM are marked with “+++.”)”; that for `Cc1nnc(C2CCN(c3ccncc3NC(=O)c3c(N)nn4cc(F)cnc34)CC2)o1` [I-N-265, 2-amino-6-fluoro-N-(4-(4-(5-methyl-1,3,4-oxadiazol-2-yl)piperidin-1-yl)pyridin-3-yl)pyrazolo[1,5-a]pyrimidine-3-carboxamide], “++ (Compounds with a Cisplatin sensitization value >0.02 μM but <0.2 μM are marked with “++.”)”.
Then `Cc1ccc(-c2ccncc2NC(=O)c2c(N)nn3cc(F)cnc23)cn1` [I-C-22, 2-amino-6-fluoro-N-(6-methyl-[3,4′-bipyridin]-3′-yl)pyrazolo[1,5-a]pyrimidine-3-carboxamide], with “++ (Compounds with a Cisplatin sensitization value >0.02 μM but <0.2 μM are marked with “++.”)”; and `CN(C)CCCNC(=O)C1CCN(c2c(F)cncc2NC(=O)c2c(N)nn3cc(F)cnc23)CC1` [I-G-26, 2-amino-N-(4-(4-((3-(dimethylamino)propyl)carbamoyl)piperidin-1-yl)-5-fluoropyridin-3-yl)-6-fluoropyrazolo[1,5-a]pyrimidine-3-carboxamide], with “++ (Compounds with a Cisplatin sensitization value >0.02 μM but <0.2 μM are marked with “++.”)”; and `CN1CC[C@H](Oc2ccncc2NC(=O)c2c(N)nn3cc(F)cnc23)C1` [I-O-1, (S)-2-amino-6-fluoro-N-(4-((1-methylpyrrolidin-3-yl)oxy)pyridin-3-yl)pyrazolo[1,5-a]pyrimidine-3-carboxamide], with “+++ (Compounds with a Cisplatin sensitization value of <0.02 μM are marked with “+++.”)”.
Consider `Nc1nn2cc(F)cnc2c1C(=O)Nc1cnccc1N1CCCCC1` [I-N-152, 2-amino-6-fluoro-N-(4-(piperidin-1-yl)pyridin-3-yl)pyrazolo[1,5-a]pyrimidine-3-carboxamide], for which the “Cisplatin Sensitization Assay” value was “+++ (Compounds with a Cisplatin sensitization value of <0.02 μM are marked with “+++.”)”.
Then `CC1(N2CCN(c3ccncc3NC(=O)c3c(N)nn4cc(F)cnc34)CC2)COC1` [I-N-62, 2-amino-6-fluoro-N-(4-(4-(3-methyloxetan-3-yl)piperazin-1-yl)pyridin-3-yl)pyrazolo[1,5-a]pyrimidine-3-carboxamide], with “++ (Compounds with a Cisplatin sensitization value >0.02 μM but <0.2 μM are marked with “++.”)”.
Then `CN1CCN(C(=O)C2CCN(c3c(F)cncc3NC(=O)c3c(N)nn4cc(F)cnc34)CC2)CC12CC2` [I-G-38, 2-amino-6-fluoro-N-(5-fluoro-4-(4-(4-methyl-4,7-diazaspiro[2.5]octane-7-carbonyl)piperidin-1-yl)pyridin-3-yl)pyrazolo[1,5-a]pyrimidine-3-carboxamide], with “+++ (Compounds with a Cisplatin sensitization value of <0.02 μM are marked with “+++.”)”; and `CC1(C)CN(C(=O)C2CCN(c3c(F)cncc3NC(=O)c3c(N)nn4cc(F)cnc34)CC2)CCN1` [I-G-27, 2-amino-N-(4-(4-(3,3-dimethylpiperazine-1-carbonyl)piperidin-1-yl)-5-fluoropyridin-3-yl)-6-fluoropyrazolo[1,5-a]pyrimidine-3-carboxamide], with “++ (Compounds with a Cisplatin sensitization value >0.02 μM but <0.2 μM are marked with “++.”)”; and `Cn1ncnc1-c1ccncc1NC(=O)c1c(N)nn2cc(F)cnc12` [I-C-65, 2-amino-6-fluoro-N-(4-(1-methyl-1H-1,2,4-triazol-5-yl)pyridin-3-yl)pyrazolo[1,5-a]pyrimidine-3-carboxamide], with “++ (Compounds with a Cisplatin sensitization value >0.02 μM but <0.2 μM are marked with “++.”)”.
